Key:
Format in all cases: cell-based
M. suipneumoniae HK(2) = assay: MIC, anti-mycoplasmal, Friis broth solidified with 0.9% agarose; conditions: inoculum 10^3 to 10^5 C.F.U., 6 days incubation at 37°C
[1] = system: M. suipneumoniae ATCC 25095; assay: as above; conditions: inoculum 10^3 to 10^5 C.F.U., 6 days incubation at 37°C
[2] = system: Corynebacterium pyogenes CY1; assay: MIC, veterinary bacteria; conditions: veterinary bacteria (Table 2)
M. hyorhinis ATCC 23234 = assay: MIC, anti-mycoplasmal, Friis broth solidified with 0.9% agarose; conditions: inoculum 10^3 to 10^5 C.F.U., 6 days incubation at 37°C
Strep pyogenes C 641848 = assay: MIC, human bacteria, serial dilution in nutrient agar; conditions: Strep pyogenes C 641848 (footnote c); nutrient agar containing 5% 'chocolated' horse blood
[3] = system: Corynebacterium zerosis 9755; assay: as above; conditions: nutrient agar containing 5% 'chocolated' horse blood
E coli NCTC 10418 [4] = assay: as above; conditions: nutrient agar containing 5% 'chocolated' horse blood
[5] = system: M. suipneumoniae NCTC 10110; assay: MIC, anti-mycoplasmal, Friis broth solidified with 0.9% agarose; conditions: inoculum 10^3 to 10^5 C.F.U., 6 days incubation at 37°C
Staph aureus Russell = assay: MIC, human bacteria, serial dilution in nutrient agar; conditions: nutrient agar containing 5% 'chocolated' horse blood
E coli E1 = assay: MIC, veterinary bacteria; conditions: veterinary bacteria (Table 2)
[6] = system: Neisseria catarrhalis 1502; assay: MIC, human bacteria, serial dilution in nutrient agar; conditions: Neisseria catarrhalis 1502 (footnote a); nutrient agar containing 5% 'chocolated' horse blood
K aerogenes A = assay: as above; conditions: nutrient agar containing 5% 'chocolated' horse blood
[7] = system: Strep suis (group D) SPS11; assay: MIC, veterinary bacteria; conditions: veterinary bacteria (Table 2)
M. suipneumoniae NB12 = assay: MIC, anti-mycoplasmal, Friis broth solidified with 0.9% agarose; conditions: inoculum 10^3 to 10^5 C.F.U., 6 days incubation at 37°C
[8] = system: M. suipneumoniae J2206/183b; assay: as above; conditions: inoculum 10^3 to 10^5 C.F.U., 6 days incubation at 37°C
Strep pneumoniae CN33 = assay: MIC, human bacteria, serial dilution in nutrient agar; conditions: nutrient agar containing 5% 'chocolated' horse blood
M. suipneumoniae TAM 6N = assay: MIC, anti-mycoplasmal, Friis broth solidified with 0.9% agarose; conditions: inoculum 10^3 to 10^5 C.F.U., 6 days incubation at 37°C
Strep uberis SPU1 = assay: MIC, veterinary bacteria; conditions: veterinary bacteria (Table 2)
Strep pyogenes B 2788 = assay: MIC, human bacteria, serial dilution in nutrient agar; conditions: nutrient agar containing 5% 'chocolated' horse blood
Staph aureus W2827 = assay: as above; conditions: nutrient agar containing 5% 'chocolated' horse blood
Strep pyogenes A R80/421 = assay: as above; conditions: Strep pyogenes A R80/421 (footnote b); nutrient agar containing 5% 'chocolated' horse blood
Past multocida PA1 = assay: MIC, veterinary bacteria; conditions: veterinary bacteria (Table 2)
Staph aureus Oxford [9] = assay: MIC, human bacteria, serial dilution in nutrient agar; conditions: nutrient agar containing 5% 'chocolated' horse blood
M. suipneumoniae LABER = assay: MIC, anti-mycoplasmal, Friis broth solidified with 0.9% agarose; conditions: inoculum 10^3 to 10^5 C.F.U., 6 days incubation at 37°C
M. gallisepticum S6 = assay: as above; conditions: inoculum 10^3 to 10^5 C.F.U., 6 days incubation at 37°C
[10] = system: Haemophilus influenzae Wy21; assay: MIC, human bacteria, serial dilution in nutrient agar; conditions: nutrient agar containing 5% 'chocolated' horse blood
Strep faecalis I = assay: as above; conditions: nutrient agar containing 5% 'chocolated' horse blood
Past Haemolytica PA5 = assay: MIC, veterinary bacteria; conditions: veterinary bacteria (Table 2)
M. bovis NCTC 10131 = assay: microbe, parasite or virus in culture; conditions: M. bovis NCTC 10131; inoculum 10^3 to 10^5 C.F.U., 6 days incubation at 37°C
Bacillus subtilis 6633 = assay: MIC, human bacteria, serial dilution in nutrient agar; conditions: nutrient agar containing 5% 'chocolated' horse blood
M. suipneumoniae Str. 11 = assay: MIC, anti-mycoplasmal, Friis broth solidified with 0.9% agarose; conditions: inoculum 10^3 to 10^5 C.F.U., 6 days incubation at 37°C
[11] = system: M. bovigenitalium ATCC 14173; assay: as above; conditions: inoculum 10^3 to 10^5 C.F.U., 6 days incubation at 37°C
P mirabilis 889 = assay: MIC, human bacteria, serial dilution in nutrient agar; conditions: nutrient agar containing 5% 'chocolated' horse blood
[12] = system: Staph aureus B4 (pen resis); assay: MIC, veterinary bacteria; conditions: veterinary bacteria (Table 2)
Bord bronchisptica BO9 = assay: MIC, veterinary bacteria; conditions: veterinary bacteria (Table 2)
[13] = system: Staph aureus 152 (pen sens); assay: MIC, veterinary bacteria; conditions: veterinary bacteria (Table 2)
M. suipneumoniae JF 435 = assay: MIC, anti-mycoplasmal, Friis broth solidified with 0.9% agarose; conditions: inoculum 10^3 to 10^5 C.F.U., 6 days incubation at 37°C
[14] = system: Pasteurella multocida 1633; assay: MIC, human bacteria, serial dilution in nutrient agar; conditions: nutrient agar containing 5% 'chocolated' horse blood
Strep dysgalaciae SPD1 = assay: MIC, veterinary bacteria; conditions: veterinary bacteria (Table 2)
Ps aeruginosa 10662 = assay: MIC, human bacteria, serial dilution in nutrient agar; conditions: nutrient agar containing 5% 'chocolated' horse blood
S dublin S7 = assay: MIC, veterinary bacteria; conditions: veterinary bacteria (Table 2)
[15] = system: M. suipneumoniae PW/C/210; assay: MIC, anti-mycoplasmal, Friis broth solidified with 0.9% agarose; conditions: inoculum 10^3 to 10^5 C.F.U., 6 days incubation at 37°C
Strep agalactiae SPA1 = assay: MIC, veterinary bacteria; conditions: veterinary bacteria (Table 2)
Staph aureus Oxford [16] = assay: MIC, veterinary bacteria; conditions: veterinary bacteria (Table 2)
M. pneumoniae ATCC 15492 = assay: MIC, anti-mycoplasmal, Friis broth solidified with 0.9% agarose; conditions: inoculum 10^3 to 10^5 C.F.U., 6 days incubation at 37°C
Past multocida PA2 = assay: MIC, veterinary bacteria; conditions: veterinary bacteria (Table 2)
S typhimurium S18 = assay: MIC, veterinary bacteria; conditions: veterinary bacteria (Table 2)
[17] = system: M. hyosynoviae ATCC 25591; assay: MIC, anti-mycoplasmal, Friis broth solidified with 0.9% agarose; conditions: inoculum 10^3 to 10^5 C.F.U., 6 days incubation at 37°C
[18] = system: Erysipelothrix rhusiopathiae NCTC 8163; assay: MIC, veterinary bacteria; conditions: veterinary bacteria (Table 2)
M. hyorhinis ATCC 25021 = assay: MIC, anti-mycoplasmal, Friis broth solidified with 0.9% agarose; conditions: inoculum 10^3 to 10^5 C.F.U., 6 days incubation at 37°C
M. suipneumoniae MS 16 = assay: as above; conditions: inoculum 10^3 to 10^5 C.F.U., 6 days incubation at 37°C
Bord bronchiseptica BO8 = assay: MIC, veterinary bacteria; conditions: veterinary bacteria (Table 2)
M. suipneumoniae UCD 1 = assay: MIC, anti-mycoplasmal, Friis broth solidified with 0.9% agarose; conditions: inoculum 10^3 to 10^5 C.F.U., 6 days incubation at 37°C
E coli NCTC 10418 [19] = assay: MIC, veterinary bacteria; conditions: veterinary bacteria (Table 2)
E coli ESS = assay: MIC, human bacteria, serial dilution in nutrient agar; conditions: nutrient agar containing 5% 'chocolated' horse blood
M. dispar NCTC 10125 = assay: MIC, anti-mycoplasmal, Friis broth solidified with 0.9% agarose; conditions: inoculum 10^3 to 10^5 C.F.U., 6 days incubation at 37°C

Cyclohexan-4-onyl monate A [Example 8]
in vitro MIC (M. suipneumoniae HK(2)): 0.5 mg/L | in vitro MIC [1]: 0.25 mg/L | MIC [2]: >80 mg/L | in vitro MIC (M. hyorhinis ATCC 23234): 0.25 mg/L | MIC (Strep pyogenes C 641848): ^c0.5 µm/ml | MIC [3]: >100 µm/ml | MIC (E coli NCTC 10418 [4]): >100 µm/ml | in vitro MIC [5]: 0.5 mg/L | MIC (Staph aureus Russell): 2.5 µm/ml | MIC (E coli E1): >80 mg/L | MIC [6]: ^a0.5 µm/ml | MIC (K aerogenes A): >100 µm/ml | MIC [7]: 2.5 mg/L | in vitro MIC (M. suipneumoniae NB12): 0.25 mg/L | in vitro MIC [8]: 0.5 mg/L | MIC (Strep pneumoniae CN33): 0.5 µm/ml | in vitro MIC (M. suipneumoniae TAM 6N): 0.5 mg/L | MIC (Strep uberis SPU1): .312 mg/L | MIC (Strep pyogenes B 2788): 0.5 µm/ml | MIC (Staph aureus W2827): 2.5 µm/ml | MIC (Strep pyogenes A R80/421): ^b0.5 µm/ml | MIC (Past multocida PA1): .312 mg/L | MIC (Staph aureus Oxford [9]): 1.0 µm/ml | in vitro MIC (M. suipneumoniae LABER): 0.25 mg/L | in vitro MIC (M. gallisepticum S6): 5.0 mg/L | MIC [10]: 0.1 µm/ml | MIC (Strep faecalis I): 25.0 µm/ml | MIC (Past Haemolytica PA5): 5 mg/L | in vitro MIC (M. bovis NCTC 10131): 0.025 mg/L | MIC (Bacillus subtilis 6633): 0.5 µm/ml | in vitro MIC (M. suipneumoniae Str. 11): 0.25 mg/L | in vitro MIC [11]: 0.025 mg/L | MIC (P mirabilis 889): 100 µm/ml | MIC [12]: 2.5 mg/L | MIC (Bord bronchisptica BO9): 20 mg/L | MIC [13]: 1.25 mg/L | in vitro MIC (M. suipneumoniae JF 435): 0.5 mg/L | MIC [14]: 0.5 µm/ml | MIC (Strep dysgalaciae SPD1): .156 mg/L | MIC (Ps aeruginosa 10662): >100 µm/ml | MIC (S dublin S7): >80 mg/L | in vitro MIC [15]: 0.25 mg/L | MIC (Strep agalactiae SPA1): .625 mg/L | MIC (Staph aureus Oxford [16]): 1.25 mg/L | in vitro MIC (M. pneumoniae ATCC 15492): 1.0 mg/L | MIC (Past multocida PA2): .156 mg/L | MIC (S typhimurium S18): >80 mg/L | in vitro MIC [17]: 0.1 mg/L | MIC [18]: 10 mg/L | in vitro MIC (M. hyorhinis ATCC 25021): 0.25 mg/L | in vitro MIC (M. suipneumoniae MS 16): 0.25 mg/L | MIC (Bord bronchiseptica BO8): 80 mg/L | in vitro MIC (M. suipneumoniae UCD 1): 0.5 mg/L | MIC (E coli NCTC 10418 [19]): >80 mg/L | MIC (E coli ESS): 0.5 µm/ml | in vitro MIC (M. dispar NCTC 10125): 0.1 mg/L

Reference: patent publication EP0025288A1, “Derivatives of monic acid, processes for their preparation, compositions containing them and their preparation” (priority 1979, dated 1981)
